According to PMC4468202, “Improved Visualization and Specific Binding for Metabotropic Glutamate Receptor Subtype 1 (mGluR1) Using [^11C]ITMM with Ultra-High Specific Activity in Small-Animal PET” (PLoS ONE, 2015):

Columns and labels:
[1] = tested on: translocater protein (TSPO); set-up: method as in PMID 20705143; conditions: ipsilateral side of an ischemic rat brain; cited from earlier work
mGluR1 = mGluR1 (Rattus norvegicus, UniProt P23385); assay: In vitro binding assay with [^18F]FITM using cerebellum homogenate; set-up: from tissue; host or cells: cerebellum homogenate; conditions: previous unpublished data, S4 Fig
Chain of mGluR1 (P23385 19-1199): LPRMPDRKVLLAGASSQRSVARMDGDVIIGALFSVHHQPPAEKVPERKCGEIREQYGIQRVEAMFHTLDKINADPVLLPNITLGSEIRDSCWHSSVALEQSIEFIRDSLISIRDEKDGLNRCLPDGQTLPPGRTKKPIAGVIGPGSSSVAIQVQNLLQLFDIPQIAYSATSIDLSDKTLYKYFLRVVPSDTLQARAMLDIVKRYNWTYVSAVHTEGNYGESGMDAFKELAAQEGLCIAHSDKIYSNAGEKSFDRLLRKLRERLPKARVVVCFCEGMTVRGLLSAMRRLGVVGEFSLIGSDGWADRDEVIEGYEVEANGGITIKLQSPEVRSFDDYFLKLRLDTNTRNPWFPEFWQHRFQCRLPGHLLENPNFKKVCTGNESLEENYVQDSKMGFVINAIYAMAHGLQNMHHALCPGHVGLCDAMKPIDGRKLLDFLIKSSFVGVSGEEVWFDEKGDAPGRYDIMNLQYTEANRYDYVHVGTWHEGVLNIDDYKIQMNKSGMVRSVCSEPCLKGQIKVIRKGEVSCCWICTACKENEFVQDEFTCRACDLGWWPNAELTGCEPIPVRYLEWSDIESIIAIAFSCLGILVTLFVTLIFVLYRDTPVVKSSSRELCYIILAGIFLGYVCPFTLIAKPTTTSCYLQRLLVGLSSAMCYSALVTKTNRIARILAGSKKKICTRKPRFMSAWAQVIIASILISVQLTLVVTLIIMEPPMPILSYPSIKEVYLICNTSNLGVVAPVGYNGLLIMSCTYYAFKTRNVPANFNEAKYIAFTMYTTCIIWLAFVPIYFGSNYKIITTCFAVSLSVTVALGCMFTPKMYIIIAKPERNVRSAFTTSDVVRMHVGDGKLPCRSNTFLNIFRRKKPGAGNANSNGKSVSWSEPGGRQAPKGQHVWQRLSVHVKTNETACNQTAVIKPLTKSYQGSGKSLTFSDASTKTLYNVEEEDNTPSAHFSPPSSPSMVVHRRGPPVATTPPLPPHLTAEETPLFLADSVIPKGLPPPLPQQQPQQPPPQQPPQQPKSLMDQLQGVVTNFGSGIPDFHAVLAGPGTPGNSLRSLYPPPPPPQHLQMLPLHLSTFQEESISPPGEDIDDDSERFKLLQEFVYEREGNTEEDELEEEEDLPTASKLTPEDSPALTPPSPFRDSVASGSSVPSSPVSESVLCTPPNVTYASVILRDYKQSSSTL

| Compound | binding potential, ultra-high SA vs conventional SA [1] | binding sites (mGluR1) |
| --- | --- | --- |
| Cn1c(=O)n(CC(=O)N([11CH3])Cc2ccccc2)c2nc(-c3ccccc3)ncc21 [[^11C]DAC] | roughly two times higher | – |
| CC(C)Nc1cc(-c2csc(N(C)C(=O)c3ccc([18F])cc3)n2)ncn1 [[^18F]FITM, 4-[18F]fluoro-N-[4-[6-(isopropylamino)pyrimidin-4-yl]-1,3-thiazol-2-yl]-N-methylbenzamide] | – | two binding sites of [^18F]FITM possessing high and low affinities |
